Measured values taken from patent US20210171912A1, “METHOD FOR SCALABLE SKELETAL MUSCLE LINEAGE SPECIFICATION AND CULTIVATION” (Memphis Meats, Inc., priority 2013, published 2021).

Columns and labels:
undifferentiated 02KM = experiment: Tolerance of undifferentiated 02KM to 5AC; assay type: cell-based, porcine
Procedure: 5AC effects. 5AC exposure prior to, during, and following E2-mediated induction of ‘MyoDER’ was introduced to enable terminal-differentiation of 02KM from myocytes into refractive, filamentous myotubes. The murine C2C12 cell line was used as positive control to screen for optimal conditions for terminal differentiation by 02KM. […] 5AC, a small-molecule epigenetic modulator, was determined previously to enable skeletal muscle transcription in cell lines non-permissive to myogenesis. Moreover, 5AC exposure was further determined to enhance terminal differentiation by the C2C12 cell line.

02K cell line [1] = experiment: Cell survival of differentiating 02K (phase contrast, cell adhesion, CPP32 cleavage, Annexin V); assay type: cell-based, porcine; settings: SRM basal medium without hLIF, DOX, PD032591 and PD173074; N-2 and B-27
Procedure: Without being bound by theory or limited by any specific representative example, it was observed that simultaneous withdrawal of both DOX and the GSK3P inhibitor CHIR99021 from the culture medium supplemented with N-2 and B-27 serum replacements precipitates massive cell death of differentiating 02K parental line within 48 h hours. Withdrawal of DOX in the presence of CHIR99021 enabled survival of the differentiating 02K. Death by differentiating 02K cells in the absence of a GSK3P inhibitor and reciprocal survival in the presence thereof was confirmed by morphology, cell adhesion assay, cleaved caspase-3 accumulation, and Annexin V labeling. […] WNT signaling plays crucial roles in both mesoderm specification from the undifferentiated ground-state pluripotency, pre-myogenic enrichment from unpatterned mesoderm and terminal differentiation of committed myocytes both in vivo and in vitro. In agreement, extended culture of the 02K line in the absence of DOX, and in the presence of a GSK3P inhibitor, supported differentiation toward the pre-myogenic paraxial mesoderm, as evidenced by the expression of PAX3 and concomitant loss of POU5F1 and KLF4 expression.
CHIR99021 inhibition 1 cell death. […] 1. […]
An axis of apoptosis and differentiation is modulated by CHIR99021. […] TUBA is detected an internal protein loading control.

02K cell line [2] = experiment: Differentiation marker Western blot (PAX3, POU5F1, KLF4) in differentiating 02K; assay type: cell-based, porcine; settings: CHIR99021 supplemented basal medium, absence of DOX
Source text: Expression levels of pluripotency markers, POU5F1 and KLF4, and the pre-myogenic paraxial mesoderm marker PAX3 in 02K cultures differentiated from the ground state in the presence of CHIR99021.
(§1) CHIR99021 inhibition 1 cell death. […] 1. As CHIR99021 repressed cell death, supported differentiation toward paraxial mesoderm by the differentiating 02K cell line and enhanced terminal differentiation by the C2C12 cell line, precedent was established to retain the compound in all culture stages.
(§2) CHIR99021 stabilizes CTNNB1 and supports differentiation from the ground state. […] TUBA detected as an internal protein loading control. FIG. 13A indicates ratios of p-CTNNB1/CTNNB1 bands. FIG. 13B indicates ratios of CTNNB1/TUBA bands. […] TUBA detection is shown as an internal protein loading control.

CTNNB1 = experiment: Western blot of CTNNB1 and p-CTNNB1 in differentiating 02K; assay type: cell-based, porcine; settings: 24 h differentiation milieu transition
Procedure: Cultures were exposed to 50 nM Calyculin A and 30 μM MG-132 for 3 hours prior to harvest to stabilize detectable levels of p-CTNNB1 for comparative analysis.
as §1, §2

murine C2C12 myoblast = experiment: Terminal differentiation of C2C12 myoblasts scored by size and extent of myotube formation; assay type: cell-based; settings: low-mitogen differentiation cultures (2% horse serum/DMEM)
piPSC-derived myotubes = experiment: Calcium transient activity (Fluo-4 AM) in piPSC-derived myotubes; assay type: cell-based, porcine; settings: 10 mM caffeine; d6 myotubes; field of view
Source text: Spontaneous and Stimuli-Induced Calcium Transient Activity in piPSC-derived myotubes. To quantify contraction cycles, myotube cultures were stained with Fluo-4 AM calcium dye, washed, and image sequences were captured by confocal microscopy. Dynamic signaling events of an entire field of view (FOV) or single cells were traced and plotted over the imaging course. [s]=seconds.

02KM cells (MyoDER) = experiment: 02KM myogenic induction by E2 activation of MyoDER; assay type: cell-based, porcine; settings: 10 μM E2, 2 d induction
Procedure: 02KM myogenic induction. 02KM cells were seeded onto culture dishes coated with poly-D lysine, murine laminin and [sequence] at a density of 4.1×10^3 cells/cm^2 and cultured under 5% O2 in self-renewal medium for 3 d.

Procedure for 02KM cell line: Terminal Differentiation. […] N-2 and B-27 supplements were used exclusively as serum replacements. Cultures were differentiated for up to 6 d following under 20% O2 following induction regimens (FIG. 20A).
MyoDER was detected with an antibody raised against a MyoD peptide. […] Determinants of MYF5 activation: Western blot analyses. […] MYODER-modified piPSC were cultured 3 days in self-renewal or expansion milieu. […] TUBA is detected as an internal protein loading control.
Terminal Myogenesis of Lineage-Specified piPSC. […] DO and D6 cultures were stained for myosin heavy chain (MyHC) isoforms with a pan-MyHC monoclonal antibody, clone MF20. […] Right panel: myonuclei distribution by myotube ploidy by propidium iodide labeling and flow cytometry analysis. n=3 with standard deviation shown. […] MyoD (MYOD1), myogenin (MYOG) and desmin (DES) expression, dO-d8. TUBA is detected as an internal protein loading control. […] FIG. 20G: Transmission Electron Microscopy, d6 myotubes.

## Nc1ncn([C@@H]2O[C@H](CO)[C@@H](O)[C@H]2O)c(=O)n1 [5AC, 5-Aza-Cytidine]
Undifferentiated 02KM
  highest dose tolerated: 250 nM
02KM cell line; 5AC 72 hours preceding DOX withdrawal and 48 hours during E2 induction
  MYF5 expression in 02KM derived myocytes: MYF5 expression was enhanced
02KM cell line; 5AC during expansion and induction regimens
  myotube morphology during terminal differentiation: formed refractive, anisotropic myotubes

## Cc1c[nH]c(-c2cnc(NCCNc3ccc(C#N)cn3)nc2-c2ccc(Cl)cc2Cl)n1 [CHIR99021]
02K cell line [1]
  cell survival during differentiation: supported both cell survival during differentiation
02K cell line [2]
  pre-myogenic paraxial mesoderm lineage specification (PAX3 expression): supported pre-myogenic paraxial mesoderm lineage specification of differentiating 02K
CTNNB1
  CTNNB1 stabilization and phosphorylation status: stabilizes and modulates the phosphorylation status of the GSK3P substrate, CTNNB1
Murine C2C12 myoblast
  terminal differentiation of C2C12 into multi-nucleated myotubes: enhanced the terminal differentiation of the myogenic murine C2C12 cell line into multi-nucleated myotubes

## Cn1c(=O)c2c(ncn2C)n(C)c1=O [caffeine]
piPSC-derived myotubes
  calcium transient activation: FOV calcium transient activation of d6 myotubes

## C[C@]12CC[C@@H]3c4ccc(O)cc4CC[C@H]3[C@@H]1CC[C@@H]2O [E2, 17-β Estradiol]
02KM cells (MyoDER)
  myogenic lineage specification (spindle-like morphology, MYOG, NCAM): myogenic lineage specification following 2 d induction culture was confirmed
